Experimental data as given in publication PMC7396997, “Discovery of 4-Anilinoquinolinylchalcone Derivatives as Potential NRF2 Activators” (Molecules, 2020).
Several values for one entry are separate records, joined by “and”; a condition that tells them apart may be missing. Identical values can stand only once. Counter-ions that a name gives are not always drawn. Like-named read-outs stand apart in the source and are kept apart here.

How the values were obtained:
[1] = tested on: HaCaT/ARE cells; assay: Cell viability (resazurin) in the reporter screen; conditions: 10 μM; in % (unit assumed)
Protocol: Immortalized human keratinocytes HaCaT were cultured in the Dulbecco’s modified Eagle’s medium (DMEM; Gibco BRL, Grand Island, NY, USA) with 10% heat-inactivated fetal bovine serum (HyClone, Logan, UT, USA), penicillin (100 U/mL), and streptomycin (100 μg/mL) in a humidified incubator with 5% CO2. HaCaT/ARE stable cells were grown in DMEM supplemented with 100 μg/mL of hygromycin.
HaCaT/ARE stable cells were seeded (1 × 10^4 cells/well) in a 96 well plate, then were treated with indicated concentrations of compounds for 18 h. At the assay time point, resazurin (Cayman Chemical, Ann Arbor, MI, USA) was added to a final concentration of 0.1 mg/mL and further incubated for 4 h at 37 °C. Fluorescence of the reduced resazurin (ex/em: 530 nm/590 nm) was measured from the culture supernatant by using a Synergy HT Multi-Mode Reader (BioTek, Winooski, VT, USA) to determine cell viability. The cells were then harvested for luciferase activity measurements according to the manufacturer’s protocol (Promega Corporation, Madison, WI, USA). Relative luciferase activity was calculated by normalizing luciferase activity to cell viability, and DMSO solvent control was used as 100% activity.

[2] = tested on: NRF2; assay: ARE-driven luciferase reporter assay (NRF2 activity) in HaCaT/ARE stable cells; format: cell-based, human; conditions: for % of Relative NRF2 Activity in HaCaT Cell / activity at 10 µM: 10 μM, 24 h (b12; method b59 says 18 h), luciferase normalised to cell viability, DMSO control = 100%; for activity at 10 µM: HaCaT, read-out: % of Relative NRF2 Activity in HaCaT Cell; for Emax of NRF2 promoter activity / EC50: HaCaT/ARE cells, 18 h, dose-response; for EC50: read-out: EC50 of NRF2 promoter activity
From the text: In this study, we used a stable ARE-driven reporter system to screen the potential NRF2 activators.

[3] = tested on: GCLM and NQO1; parameters: method as in PMID 21539383; conditions: small intestine; cited from earlier work
[4] = tested on: HaCaT cells; assay: Cytotoxicity, 72 h resazurin cell viability assay; format: cell-based, human
Protocol: (§1) Cells were seeded in a 96-well plate contained 100 μL culture medium in triplicate and treated with several compounds for 72 h. At the assay time point, resazurin (Cayman Chemical) was added and further incubated for 4 h at 37 °C. Fluorescence of the reduced resazurin was measured as described previously.
(§2) Figure 3 The cytotoxicity of 12b, 13b, and 14b in HaCaT cells. HaCaT cells were treated with indicated concentrations of these three compounds for 72 h. Cell viability was determined by a resazurin assay as described in the Materials and Methods section. Data presented as mean ± SD from three independent experiments.

[5] = Cytotoxicity, 72 h resazurin cell viability assay; format: cell-based, human; conditions: human
Protocol: as §1, §2

Molecule	Cell Viability [1]	% of Relative NRF2 Activity in HaCaT Cell [2]	other results
CCN(CC)CCOC(=O)c1ccc(Nc2cc(/C=C/C(=O)c3ccc(F)cc3)nc3ccccc23)cc1 [13h, 2-(Diethylamino)ethyl (E)-4-{{2-[3-(4-fluorophenyl)-3-oxoprop-1-en-1-yl]-quinolin-4-yl}amino}benzoate]	82.7 ± 1.7		
(E)-N-[2-(Diethylamino)ethyl]-4-{{2-[3-(4-fluorophenyl)-3-oxoprop-1-en-1-yl]quinolin-4-yl}amino}benzamide [13g]	78.7 ± 0.5	5% and 5.1 ± 0.42%	
C/C(=N\OCCCN(C)C)c1ccc(Nc2cc(/C=C/C(=O)c3ccccc3)nc3ccccc23)cc1 [12e, (E)-3-{4-{{4-{(E)-1-{[3-(dimethylamino)propoxy]imino}ethyl}phenyl}-amino}quinolin-2-yl}-1-phenylprop-2-en-1-one]	69.5 ± 0.9		activity at 10 µM ([2]; Homo sapiens): 95%
O=C(/C=C/c1cc(Nc2ccccc2)c2ccccc2n1)c1ccccc1 [12a, (E)-1-phenyl-3-[4-(phenylamino)quinolin-2-yl]prop-2-en-1-one]	67.65 ± 0.6		activity at 10 µM ([2]; Homo sapiens): 7%
C/C(=N\OCCN)c1ccc(Nc2cc(/C=C/C(=O)c3ccccc3)nc3ccccc23)cc1 (as salt: hydrochloride) [12d]			melting point: 200.2 to 201.5 °C
CCN(CC)CCOC(=O)c1ccc(Nc2cc(/C=C/C(=O)c3ccccc3)nc3ccccc23)cc1 [12h, 2-(Diethylamino)ethyl (E)-4-{[2-(3-oxo-3-phenylprop-1-en-1-yl)quinolin-4-yl]amino}benzoate]	71.1 ± 1.2		
O=C(O)c1ccc(Nc2cc(/C=C/C(=O)c3ccccc3)nc3ccccc23)cc1 (as salt: hydrochloride) [12c, (E)-4-{[2-(3-oxo-3-phenylprop-1-en-1-yl)quinolin-4-yl]amino}benzoic acid]			melting point: 298.3 to 298.9 °C
C/C(=N\OCCN)c1ccc(Nc2cc(/C=C/C(=O)c3ccccc3)nc3ccccc23)cc1 [12d]	68.4 ± 1.3		activity at 10 µM ([2]; Homo sapiens): 287%
(E)-3-{4-{{4-{(E)-1-{[2-(Dimethylamino)ethoxy]imino}ethyl}phenyl}-amino}quinolin-2-yl}-1-(4-fluorophenyl)prop-2-en-1-one [13e]		2145% and 2144.7 ± 168.6%	
(E)-3-{4-{{4-{(E)-1-[(2-Aminoethoxy)imino]ethyl}phenyl}amino}quinolin-2-yl}-1-(4-fluorophenyl)prop-2-en-1-one [13d]		1697% and 1697.3 ± 39.8%	
CCN(CC)CCNC(=O)c1ccc(Nc2cc(/C=C/C(=O)c3ccc(OC)cc3)nc3ccccc23)cc1 [13f]	88.7 ± 1.9		
CCN(CC)CCOC(=O)c1ccc(Nc2cc(/C=C/C(=O)c3ccccc3)nc3ccccc23)cc1 (as salt: hydrochloride) [12h, 2-(Diethylamino)ethyl (E)-4-{[2-(3-oxo-3-phenylprop-1-en-1-yl)quinolin-4-yl]amino}benzoate]			melting point: 158.7 to 159.3 °C
CCN(CC)CCOC(=O)c1ccc(Nc2cc(/C=C/C(=O)c3ccc(F)cc3)nc3ccccc23)cc1 (as salt: hydrochloride) [13h, 2-(Diethylamino)ethyl (E)-4-{{2-[3-(4-fluorophenyl)-3-oxoprop-1-en-1-yl]-quinolin-4-yl}amino}benzoate]			melting point: 135.4 to 135.8 °C
C/C(=N\OCCCN(C)C)c1ccc(Nc2cc(/C=C/C(=O)c3ccc(F)cc3)nc3ccccc23)cc1 [14e]	76.7 ± 0.2		activity at 10 µM ([2]; Homo sapiens): 193%
CC(C)(C)c1cc(O)ccc1O [t-BHQ, tert-Butyl hydroquinone, reference compound]	97.7 ± 1.5	1880% and 1880.4 ± 97.2%	
COc1ccc(/C=C/C(=O)c2c(O)cc(OC)cc2OC)cc1 [Flavokawain A, reference compound]	95.9 ± 1.6		
CCN(CC)CCOC(=O)c1ccc(Nc2cc(/C=C/C(=O)c3ccc(OC)cc3)nc3ccccc23)cc1 [14h, 2-(Diethylamino)ethyl (E)-4-{{2-[3-(4-methoxyphenyl)-3-oxoprop-1-en-1-yl]-quinolin-4-yl}amino}benzoate]	76.8 ± 0.2		activity at 10 µM ([2]; Homo sapiens): 127%

Molecule	Cell Viability [1]	% of Relative NRF2 Activity in HaCaT Cell [2]	other results
(E)-4-{{2-[3-(4-Methoxyphenyl)-3-oxoprop-1-en-1-yl]quinolin-4-yl}-amino}benzoic acid [14c]	70.8 ± 1.9	212% and 212.6 ± 93.6%	
CCN(CC)CCNC(=O)c1ccc(Nc2cc(/C=C/C(=O)c3ccc(F)cc3)nc3ccccc23)cc1 [14f]	66.3 ± 2.6	6.0 ± 0.3%	activity at 10 µM ([2]; Homo sapiens): 6%
C/C(=N\OCCCN(C)C)c1ccc(Nc2cc(/C=C/C(=O)c3ccccc3)nc3ccccc23)cc1 (as salt: hydrochloride) [12e, (E)-3-{4-{{4-{(E)-1-{[3-(dimethylamino)propoxy]imino}ethyl}phenyl}-amino}quinolin-2-yl}-1-phenylprop-2-en-1-one]			melting point: 155.6 to 156.6 °C
(E)-3-{4-{{4-{(E)-1-[(2-Aminoethoxy)imino]ethyl}phenyl}amino}quinolin-2-yl}-1-(4-methoxyphenyl)prop-2-en-1-one [14d]		229% and 229.4 ± 68.4%	
O=C(O)c1ccc(Nc2cc(/C=C/C(=O)c3ccccc3)nc3ccccc23)cc1 [12c, (E)-4-{[2-(3-oxo-3-phenylprop-1-en-1-yl)quinolin-4-yl]amino}benzoic acid]	81.4 ± 0.8		activity at 10 µM ([2]; Homo sapiens): 75%
COc1ccccc1C(=O)/C=C/c1ccccc1C(F)(F)F [Compound 1, (E)-1-(2-methoxyphenyl)-3-[2-(trifluoromethyl)phenyl]prop-2-en-1-one]			expression of GCLM compared to sulforaphane [3]: 3 fold; expression of NQO1 compared to sulforaphane [3]: 5 fold
(E)-4-({2-[3-(4-Fluorophenyl)-3-oxoprop-1-en-1-yl]quinolin-4-yl}amino)-benzoic acid [13c]	74.5 ± 1.1	147% and 147.3 ± 51.7%	
CCN(CC)CCOC(=O)c1ccc(Nc2cc(/C=C/C(=O)c3ccc(OC)cc3)nc3ccccc23)cc1 (as salt: hydrochloride) [14h, 2-(Diethylamino)ethyl (E)-4-{{2-[3-(4-methoxyphenyl)-3-oxoprop-1-en-1-yl]-quinolin-4-yl}amino}benzoate]			melting point: 158.7 to 159.3 °C
CCN(CC)CCNC(=O)c1ccc(Nc2cc(/C=C/C(=O)c3ccccc3)nc3ccccc23)cc1 [12f]	78.8 ± 0.1		activity at 10 µM ([2]; Homo sapiens): 26%
(E)-3-{4-[(4-Acetylphenyl)amino]quinolin-2-yl}-1-(4-methoxyphenyl)prop-2-en-1-one [14b]		937% and 936.5 ± 39.8%	Emax of NRF2 promoter activity [2]: 748.5±73.6%; EC50 [2]: 1.58 ± 0.15 µM; CC50 [4]: 28.4 µM
(E)-1-(4-Methoxyphenyl)-3-[4-(phenylamino)quinolin-2-yl]prop-2-en-1-one [14a]		7% and 7.1 ± 1.3%	
(E)-1-(4-Fluorophenyl)-3-[4-(phenylamino)quinolin-2-yl]prop-2-en-1-one [13a]		6% and 5.5 ± 0.17%	
(E)-N-[2-(Diethylamino)ethyl]-4-{{2-[3-(4-methoxyphenyl)-3-oxoprop-1-en-1-yl]quinolin-4-yl}amino}benzamide [14g]	77.6 ± 1.5	5% and 5.1 ± 0.18%	
CC(=O)c1ccc(Nc2cc(/C=C/C(=O)c3ccccc3)nc3ccccc23)cc1 [12b, (E)-3-{4-[(4-acetylphenyl)amino]quinolin-2-yl}-1-phenylprop-2-en-1-one]	71.2 ± 1.8		Emax of NRF2 promoter activity [2]: 692.8±53.3%; activity at 10 µM ([2]; Homo sapiens): 394%; EC50 ([2]; Homo sapiens): 0.85 ± 0.04 µM; CC50 at 72 h [5]: 9.3 µM
CC(=O)c1ccc(Nc2cc(/C=C/C(=O)c3ccccc3)nc3ccccc23)cc1 (as salt: hydrochloride) [12b, (E)-3-{4-[(4-acetylphenyl)amino]quinolin-2-yl}-1-phenylprop-2-en-1-one]			melting point: 248.7 to 249.2 °C
O=C(/C=C/c1cc(Nc2ccccc2)c2ccccc2n1)c1ccccc1 (as salt: hydrochloride) [12a, (E)-1-phenyl-3-[4-(phenylamino)quinolin-2-yl]prop-2-en-1-one]			melting point: 238.5 to 239.2 °C
